Data published in patent US4689345A, “Oxygenated alkyl substituted bicyclo alkanes” (CBD Corporation, priority 1986, dated 1987).
“Also recorded” adds a separate entry of the source.

Legend:
[1] = test system: human fibroblast cells; assay: Elastin production by fibroblast cells; format: cell-based
From the text: (§1) Experiments generally following the methodology of Boote et al., Biochimica et Biophysica Acta, Volume 607, pages 145-160 (1980), have shown that while control human fibroblast cells have copious collagen production, treatment with the compounds of the invention provides human fibroblast cells with suppressed collagen production and with an about 30% increase in elastin production over control cells.
(§2) Wrinkling of the skin involves the decreased formation of elastin and the increased formation of collagen by supporting cells, predominantly the fibroblasts.

[2] = test system: human fibroblast cells; assay: Collagen production by fibroblast cells; format: cell-based; settings: treated vs control cells
From the text: as §1, §2

[3] = test system: estrogen receptor (keloid cytosol); assay: Keloid cytosol steroid binding assay, estrogen; set-up: species or system human

CCOC(CC)CCCCC1CCC2CC(=O)CC12 (stereo not drawn) [Compound VI, 2-(5-ethoxyhept-1-yl)bicyclo[3.3.0]octan-7-one]
formation of elastin ([1]; Example 45): massive observable increase in the formation of elastin | increase in elastin production over control cells ([1]; treated vs control (non-treated) fibroblast cells): ~30% | collagen production/formation [2]: decrease in collagen production; also recorded: decreased

Estrogen
estrogen binding, male patients ([3]; male patients): neither detectable | Binding of Estrogen ([3]; patient 1): 9 | Binding of Estrogen ([3]; patient 2): 4
